According to patent publication US12617812B2, “Platinum(IV) complexes, methods of manufacture, compositions containing, and methods of use thereof” (City University of Hong Kong, priority 2021, dated 2026):

Legend:
[1] = system: Human ovarian carcinoma A2780 cells; assay: MTT cytotoxicity test, A2780 cells; type: cell-based; conditions: 6 h treatment
Experimental: (§1) Human lung carcinoma A549 cells (American Type Culture Collection, ATCC), and cisplatin-resistant A549cisR cells (American Type Culture Collection, ATCC) are cultured in DMEM with 10% FBS and 100 µg/mL penicillin/streptomycin. Human ovarian carcinoma A2780 and cisplatin-resistant A2780cisR cells are cultured in RPMI-1640 with 10% FBS, 1% L-Glutamine, and 100 µg/mL penicillin/streptomycin. Human lung fibroblast MRC-5 cells (American Type Culture Collection, ATCC) are cultured in MEM with 10% FBS, 1% NEAA, 1% L-Glutamine, 1% sodium pyruvate, and 100 µg/mL penicillin/streptomycin. For A2780cisR and A549cisR cells, 2 μM of cisplatin is added into the culture medium after the attachment to maintain the resistance. All the cells are cultured at 37° C. in 5% CO2.
(§2) The cytotoxic profiles of the various complexes against selected cell lines are obtained by a 3-(4,5-Dimethylthiazol-2-yl)-2,5-diphenyltetrazolium bromide (MTT) assay. Cells are seeded into 96-well plates at a density of 2,500 cells per well (for A549, and A2780) or 5,000 cells per well (for A549cisR, A2780cisR, and MRC-5) and incubated for 24 h. Cells are then treated with medium containing various concentrations of complexes for 6 h. The medium is replaced by phenol-red free medium. Then cells are irradiated with near-infrared radiation (880 nm, 0.4 W/cm^2) for 80 min. After irradiation, cells are further incubated in fresh medium for 18 h at 37° C. Then, the culture medium is removed, cells are then incubated with FBS free medium containing 1 mg/mL MTT for 2 h. Medium containing MTT is removed and 150 μL DMSO is added to each well. The absorbance is measured at 570 and 630 nm. […]

[2] = system: cisplatin-resistant A2780cisR cells; assay: MTT cytotoxicity test, A2780cisR cells; type: cell-based, Human; conditions: 6 h treatment
Experimental: as §1, §2

[3] = system: Human lung carcinoma A549 cells; assay: MTT cytotoxicity test, A549 cells; type: cell-based; conditions: 6 h treatment
Experimental: as §1, §2

[4] = system: cisplatin-resistant A549cisR cells; assay: MTT cytotoxicity test, A549cisR cells; type: cell-based, Human; conditions: 6 h treatment
Experimental: as §1, §2

[5] = system: Human lung fibroblast MRC-5 cells; assay: MTT cytotoxicity test, MRC-5 cells; type: cell-based; conditions: in the dark with no irradiation, 6 h treatment
Experimental: as §1
The cytotoxic profiles of the various complexes against selected cell lines are obtained by a 3-(4,5-Dimethylthiazol-2-yl)-2,5-diphenyltetrazolium bromide (MTT) assay. Cells are seeded into 96-well plates at a density of 2,500 cells per well (for A549, and A2780) or 5,000 cells per well (for A549cisR, A2780cisR, and MRC-5) and incubated for 24 h. Cells are then treated with medium containing various concentrations of complexes for 6 h. The medium is replaced by phenol-red free medium. Then cells are irradiated with near-infrared radiation (880 nm, 0.4 W/cm^2) for 80 min. After irradiation, cells are further incubated in fresh medium for 18 h at 37° C. Then, the culture medium is removed, cells are then incubated with FBS free medium containing 1 mg/mL MTT for 2 h. Medium containing MTT is removed and 150 μL DMSO is added to each well. The absorbance is measured at 570 and 630 nm.
Cells are treated with the indicated complex for 6 h, the culture medium is replaced with fresh medium and irradiated with or without blue light for 1 h. Then cells are cultured for another 42 h.

[6] = in the dark with no irradiation
[7] = mark * (dark), position of the irradiated row
[8] = A2780cisR*, in the dark with no irradiation
[9] = A549*, in the dark with no irradiation
[10] = A549cisR*, in the dark with no irradiation

Row | Compound | IC50 [1, 6] | IC50 [1, 7] | IC50 ([2]; A2780cisR**, with irradiation) | IC50 [2, 8] | IC50 ([3]; A549**, with irradiation) | IC50 [3, 9] | IC50 ([4]; A549cisR**, with irradiation) | IC50 [4, 10] | IC50 [5]
1 | N.N.O=C([O-])C1(C(=O)[O-])CCC1.[Pt+2] [Carboplatin, reference compound] | 303 ± 34.8 µM | 336 ± 43.8 µM | 630 ± 43.2 µM | 668 ± 51.1 µM | 435 ± 42.9 µM | 418 ± 33.6 µM | > 700 µM | > 700 µM | 690 ± 38.5 µM
2 | CCN(CC)c1ccc2cc(C(=O)/C=C/c3ccc(N(C)CCC(=O)[O][Pt]4([NH2])([NH2])([O]C(=O)Cc5cccc6c(=O)c7ccc(C)c(C)c7oc56)[O]C(=O)C5(CCC5)C(=O)[O]4)cc3)c(=O)oc2c1 [Complex 6] | > 50 µM | 11.4 ± 1.5 µM | 12.7 ± 1.9 µM | > 50 µM | 11.6 ± 1.2 µM | > 50 µM | 12.6 ± 2.1 µM | > 50 µM | > 50 µM
3 | CCN(CC)c1ccc2cc(C(=O)/C=C/c3ccc(N(C)CCC(=O)[O][Pt]4([NH2])([NH2])([OH])[O]C(=O)C5(CCC5)C(=O)[O]4)cc3)c(=O)oc2c1 [Complex 4] | > 50 µM | 10.7 ± 2.2 µM | 11.2 ± 2.8 µM | > 50 µM | 17.7 ± 5.1 µM | > 50 µM | 18.9 ± 4.3 µM | > 50 µM | > 50 µM
4 | O=C1[O][Pt]2([NH][C@@H]3CCCC[C@H]3[NH]2)[O]C1=O [Oxaliplatin, reference compound] | 86.5 ± 7.7 µM | 73.7 ± 5.9 µM | 254 ± 18.2 µM | 250 ± 12.6 µM | 104 ± 8.2 µM | 97.2 ± 7.5 µM | 269 ± 16.3 µM | 258 ± 11.6 µM | 213 ± 16.4 µM
